For this assay, the target named is Sodium- and chloride-dependent glycine transporter 1 (Homo sapiens) (UniProt P48067). Description: Radioligand Binding Assay: 1. [3H]-Glycine uptake into recombinant CHO cells expressing human GlyT1: Human GlyT1c expressing recombinant hGlyT1c_5_CHO cells were plated at 20,000 cells per well in 96 well Cytostar-T scintillation microplates (Amersham Biosciences) and cultured to sub-confluency for 24 h. For glycine uptake assays the culture medium was aspirated and the cells were washed once ….

Usually Ki stands for a dissociation constant, usually derived from enzyme kinetics or from competition with a known ligand.

Sequence of Sodium- and chloride-dependent glycine transporter 1 (Homo sapiens) (P48067 whole entry, looked up): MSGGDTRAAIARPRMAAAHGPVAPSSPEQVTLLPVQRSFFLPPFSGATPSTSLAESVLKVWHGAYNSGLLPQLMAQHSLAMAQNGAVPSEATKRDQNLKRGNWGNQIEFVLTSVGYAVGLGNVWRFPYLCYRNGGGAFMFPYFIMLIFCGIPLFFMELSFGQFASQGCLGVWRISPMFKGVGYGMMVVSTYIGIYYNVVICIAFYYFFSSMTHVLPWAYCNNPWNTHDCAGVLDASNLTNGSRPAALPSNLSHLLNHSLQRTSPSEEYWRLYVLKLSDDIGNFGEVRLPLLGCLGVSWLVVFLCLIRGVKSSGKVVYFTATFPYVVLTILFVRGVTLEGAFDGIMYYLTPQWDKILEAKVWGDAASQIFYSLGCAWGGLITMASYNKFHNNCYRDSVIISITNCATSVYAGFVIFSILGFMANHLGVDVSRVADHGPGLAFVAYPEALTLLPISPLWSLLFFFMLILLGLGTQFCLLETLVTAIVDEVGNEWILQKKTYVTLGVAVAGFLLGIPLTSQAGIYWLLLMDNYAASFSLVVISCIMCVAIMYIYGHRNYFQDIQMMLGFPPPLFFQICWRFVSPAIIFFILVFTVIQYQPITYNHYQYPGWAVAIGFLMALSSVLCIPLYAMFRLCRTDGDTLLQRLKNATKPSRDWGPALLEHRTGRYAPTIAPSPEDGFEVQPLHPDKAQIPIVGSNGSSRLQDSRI

On to `CNC1COc2ccc(N3CC(NS(=O)(=O)CC4CC4)C3)cc2C1Cc1ccccc1` (cis isomer), for which the Ki is under 10 nM.

These data come from ChEMBL document CHEMBL5725824, “Aminochromane, aminothiochromane and amino-1,2,3,4-tetrahydroquinoline derivatives, pharmaceutical compositions containing them, and their use in therapy” (2017).
